Experimental findings from patent publication US11712446B2, “Methods of mobilizing marrow infiltrating lymphocytes and uses thereof” (GLYCOMIMETICS, INC., priority 2017, dated 2023) are described below.

What all share (format): in vivo, BALB/c mice
One experiment relates to CD8+ T cells. Kind of experiment: Flow cytometric CD62L/CD44 phenotype of CD8+ T cells in peripheral blood and bone marrow of CT26 immune mice (MIL mobilization). The conditions noted are these: 12 hours after final dose. Here is the method: (§1) Protocol for Detection and Mobilization of MILs in the CT-26 tumor model: GMI-1271 is a potent, small-molecule, glycomimetic antagonist of E-selectin. GMI-1359 is a potent, small-molecule glycomimetic dual antagonist, targeting E-selectin and CXCR4. The effects of inhibiting either E-selectin with GMI-1271 or E-selectin and CXCR4 with GMI-1359 on MIL mobilization was tested in BALB/c mice that had been induced to reject the syngeneic CT26 colon carcinoma via anti-CTLA-4 T cell checkpoint antibody.
Treatment with anti-CTLA-4 for all mice implanted with CT26.WT began on Day 3. All mice were dosed intraperitoneally on Days 3, 6, 10, 13, and 17. All mice were dosed according to individual body weight on the day of treatment (0.2 mg/20 g).
On Day 25, mice without tumors following CTLA-4 treatment were distributed into the four “Tumor Immune” treatment groups indicated in Table 1 such that the mean body weight within each group was within 10% of the overall mean.
(§2) Treatment for “Tumor Immune” groups 1-4 began on Day 25. The Vehicle was dosed intraperitoneally every 12 hours for 3 days (Days 25-27). GMI-1271 and GMI-1359 were dosed intraperitoneally at 40 mg/kg every 12 hours for 3 days (Days 25-27). G-CSF was dosed at 0.125 mg/kg subcutaneously every 12 hours for 3 days (Days 25-27).
A “Nonimmune” group 5 was populated with age-matched, naive non-tumor bearing mice.
(§3) At 12 hours after the final dose of test agents, all mice in groups 1-5 (treatment “Tumor Immune” groups 1-4 and control “Nonimmune” group 5) were euthanized for blood and bone marrow collection.
Flow cytometric analysis was used to determine CD62L and CD44 expression on CD8+ T cells in whole blood and bone marrow samples. Secondary analysis included AH-1 Dextramer analysis on the three tissue types and IFNγ production in pooled blood and bone marrow samples. Samples were acquired using a 4 laser, 14 color Attune NxT Flow Cytometer with autosampler. CD62L and CD44 events were gated on CDS+ T cells.
(In general: A flow cytometer gives signals particle by particle.)

The next experiment deals with CD8+ MILs. As to the kind of experiment: IFNγ production by bone marrow CD8+ MILs following in vitro stimulation with irradiated CT-26 tumor cells or AH1. The following applies: tumor immunized mice, 40 mg/kg IP every 12 hours for 3 days, FIG. 2. On the procedure:
as §1, §2, §3
(§4) Flow cytometric analysis was used to determine CD62L and CD44 expression on CD8+ T cells in whole blood and bone marrow samples. Secondary analysis included AH-1 Dextramer analysis on the three tissue types and IFNγ production in pooled blood and bone marrow samples. Samples were acquired using a 4 laser, 14 color Attune NxT Flow Cytometer with autosampler. […]

The subject of experiment [1] is CD8+ T-cells in peripheral blood. As to the kind of experiment: Percent of CD8+ lymphocytes in peripheral blood armed to produce IFNγ. The conditions noted are these: CT26 immune mice; GMI compounds 40 mg/kg IP, G-CSF 0.125 mg/kg SC, every 12 hours for 3 days; 12 hours after final dose; FIG. 3. Here is the method:
as §1, §2, §3, §4

`CC[C@H]1C[C@@H](C(=O)NCCNC(=O)CCOCCOCCOCCOCCOCCOCCOCCOCCOCCOCCOCCOC)C[C@@H](O[C@@H]2O[C@H](CO)[C@H](O)[C@H](O[C@@H](CC3CCCCC3)C(=O)[O-])[C@H]2NC(C)=O)[C@@H]1O[C@@H]1O[C@@H](C)[C@@H](O)[C@@H](O)[C@@H]1O.[Na+]` [GMI-1271]: the “redistribution of effector memory (EM, CD62L-CD44+) CD8+ T cells” value with CD8+ T cells (40 mg/kg IP every 12 hours for 3 days, FIG. 1C) is on record as “not effected”. In addition, the “mobilization of naïve (CD62L+CD44−) CD8+ T cells into the peripheral blood” value with CD8+ T cells (GMI compounds 40 mg/kg IP, G-CSF 0.125 mg/kg SC, every 12 hours for 3 days, FIG. 1A) was “mobilized”. In addition, the “mobilization of central memory (CM, CD62L+CD44+) CD8+ T cells into the peripheral blood” value in the experiment on CD8+ T cells (GMI compounds 40 mg/kg IP, G-CSF 0.125 mg/kg SC, every 12 hours for 3 days, FIG. 1B) is listed as “mobilized”. The “functional activity of bone marrow CD8+ MILs (IFNγ production) after in vitro stimulation” value in the experiment on CD8+ MILs was “primed to respond to both AH1 and whole tumor cells”. In addition, in experiment [1], the “percentage of CD8+ T-cells in peripheral blood primed to produce IFNγ” value is listed as “markedly increased”.
